Four compounds from ChEMBL document CHEMBL1201862, “PubChem BioAssay data set” (2004) can be followed below.

Among the test systems are Hs-578T; MOLT-4; LOX IMVI; A549; NCI-H522; HCC 2998; K562; RPMI-8226; SK-MEL-28; COLO 205; OVCAR-8; A498; BT-549; NCI/ADR-RES; IGROV-1; SNB-19; SR; SK-OV-3; SK-MEL-5.
Common to all, as to assay: NCI-60 cell line screen, 48 h

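48-hour exposure; five concentrations; linearly interpolated endpoints. GI50 is the concentration that inhibits growth by half.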 The source made the active and inactive calls. No stated cut-off is given here; in the data, active = GI50 up to about 1.1 µM and inactive = higher.

For the compound `Cc1cc2c(cc1C)C(=O)c1ncccc1C2=O`, the GI50 was > 100 µM (inactive) in the experiment with Hs-578T; 20.4 µM (inactive) in the experiment on MOLT-4; 29.4 µM (inactive) in the experiment with LOX IMVI; 22.7 µM (inactive) with A549; 16.7 µM (inactive) with NCI-H522; 33.4 µM (inactive) with HCC 2998. In addition, the GI50 was 17.5 µM (inactive) in the experiment on K562; 29.9 µM (inactive) in the experiment with RPMI-8226; 50.5 µM (inactive) with SK-MEL-28; 18.3 µM (inactive) with COLO 205; 31.9 µM (inactive) in the experiment on OVCAR-8; 50.2 µM (inactive) in the experiment on A498. Besides, the GI50 with BT-549 is 40.9 µM (inactive); in the experiment on NCI/ADR-RES, 22.8 µM (inactive); with IGROV-1 it was 31.2 µM (inactive); with SNB-19, 34.8 µM (inactive); with SR, < 0.01 µM (active); in the experiment on SK-OV-3, 87.9 µM (inactive). For the same compound, the GI50 with SK-MEL-5 was 7 µM (inactive).
Consider `CCOC(CCNCC(OCC)OCC)OCC`, for which the GI50 in the experiment with Hs-578T, in the experiment on MOLT-4, in the experiment with LOX IMVI, in the experiment with A549, with NCI-H522 and in the experiment with HCC 2998 was > 10 µM (inactive) throughout. The GI50 in the experiment on K562, with RPMI-8226, with SK-MEL-28, in the experiment on COLO 205, in the experiment with OVCAR-8 and in the experiment on A498 was > 10 µM (inactive) throughout. The GI50 in the experiment on BT-549, with NCI/ADR-RES, in the experiment with IGROV-1, in the experiment with SNB-19, in the experiment with SR and in the experiment on SK-OV-3 was > 10 µM (inactive) throughout. Besides, the GI50 in the experiment with SK-MEL-5 was > 10 µM (inactive).
`O=C1C2=C(C(=O)c3c(O)ccc(O)c31)[C@@H](O)[C@@H](O)[C@@H](O)C2`: the GI50 was 3.72 µM (inactive) in the experiment with Hs-578T; 2.94 µM (inactive) with MOLT-4; 2 µM (inactive) with LOX IMVI; 3.21 µM (inactive) in the experiment with A549; 0.367 µM (active) in the experiment on NCI-H522; 7.33 µM (inactive) with HCC 2998. Moreover, the GI50 with K562 was 2.77 µM (inactive); in the experiment with RPMI-8226, 1.02 µM (active); in the experiment on SK-MEL-28 it was 2.26 µM (inactive); with COLO 205, 0.0741 µM (active); with OVCAR-8, 2.31 µM (inactive); with A498 it was 7.05 µM (inactive). Moreover, the GI50 with BT-549 was 1.43 µM (inactive); in the experiment with NCI/ADR-RES, 2.66 µM (inactive); in the experiment on IGROV-1, 2.75 µM (inactive); in the experiment with SNB-19 it was 13.1 µM (inactive); in the experiment with SR, > 100 µM (inactive); in the experiment with SK-OV-3, 18.2 µM (inactive). In addition, in the experiment with SK-MEL-5, the GI50 was 1.74 µM (inactive).
As for `O=c1oc2cc(O)ccc2c(O)c1C(c1ccccc1F)c1c(O)c2ccc(O)cc2oc1=O`, the GI50 was 68.9 µM (inactive) with Hs-578T; 45.8 µM (inactive) with MOLT-4; 46 µM (inactive) with LOX IMVI; > 100 µM (inactive) in the experiment with A549; > 100 µM (inactive) in the experiment with NCI-H522; 21.2 µM (inactive) in the experiment with HCC 2998. Further, the GI50 in the experiment on K562 is 25.4 µM (inactive); with RPMI-8226, 29.6 µM (inactive); with SK-MEL-28, 52 µM (inactive); with COLO 205, > 100 µM (inactive); in the experiment on OVCAR-8 it was 56.4 µM (inactive); in the experiment on A498, > 100 µM (inactive). For the same compound, the GI50 is 11.3 µM (inactive) with BT-549; > 100 µM (inactive) in the experiment with NCI/ADR-RES; > 100 µM (inactive) in the experiment with IGROV-1; > 100 µM (inactive) in the experiment with SNB-19; 34.7 µM (inactive) in the experiment with SR; > 100 µM (inactive) in the experiment on SK-OV-3. Further, the GI50 in the experiment with SK-MEL-5 is 28.4 µM (inactive).
